The record followed here is patent publication US10011607B2, “Ethynyl derivatives” (Hoffmann-La Roche Inc., priority 2015, dated 2018).

This test addresses human mGlu4 receptor (Homo sapiens (Human), UniProt Q14833). The experiment in a line: Ca2+ mobilization in vitro assay on recombinant human mGlu4 expressed in HEK293 cells (PAM). The class given is cell-based. The settings on record: for Emax: HEK293, maximal response in % of maximal stimulatory effect of saturating L-AP4, read-out: Eff. (%); for EC50: HEK293 cells, human mGlu4, in presence of EC20 of L-AP4, read-out: EC50 (nM) mGlu4PAM. The source says: FIG. 1: Illustrates the experimental outline for mGlu4 PAM Ca^2+ mobilization screening assay and the determination of EC50 and % Emax values. […] A depression of the signal observed after addition of the EC20 concentration of L-AP4 was indicative of an inhibitory activity of the test compound.
Determination of EC50 Values Using a Ca2+ Mobilization In Vitro Assay on Recombinant Human mGlu4 Expressed in HEK293 Cells:
A monoclonal HEK-293 cell line stably transfected with a cDNA encoding for the human mGlu4 receptor was generated; for the work with mGlu4 Positive Allosteric Modulators (PAMs), a cell line with low receptor expression levels and low constitutive receptor activity was selected to allow the differentiation of agonistic versus PAM activity. Cells were cultured according to standard protocols (Freshney, 2000) in Dulbecco's Modified Eagle Medium with high glucose supplemented with 1 mM glutamine, 10% (vol/vol) heat-inactivated bovine calf serum, Penicillin/Streptomycin, 50 μg/ml hygromycin and 15 μg/ml blasticidin (all cell culture reagents and antibiotics from Invitrogen, Basel, Switzerland).
About 24 hrs before an experiment, 5×10^4 cells/well were seeded in poly-D-lysine coated, black/clear-bottomed 96-well plates. The cells were loaded with 2.5 μM Fluo-4AM in loading buffer (1×HBSS, 20 mM HEPES) for 1 hr at 37° C. and washed five times with loading buffer. The cells were transferred into a Functional Drug Screening System 7000 (Hamamatsu, Paris, France), and 11 half logarithmic serial dilutions of test compound at 37° C. were added and the cells were incubated for 10-30 min. with on-line recording of fluorescence. Following this pre-incubation step, the agonist (2S)-2-amino-4-phosphonobutanoic acid (L-AP4) was added to the cells at a concentration corresponding to EC20 with on-line recording of fluorescence; in order to account for day-to-day variations in the responsiveness of cells, the EC20 of L-AP4 was determined immediately ahead of each experiment by recording of a full dose-response curve of L-AP4.
Responses were measured as peak increase in fluorescence minus basal (i.e. fluorescence without addition of L-AP4), normalized to the maximal stimulatory effect obtained with saturating concentrations of L-AP4. Graphs were plotted with the % maximal stimulatory using XLfit, a curve fitting program that iteratively plots the data using Levenburg Marquardt algorithm. The single site competition analysis equation used was y=A+((B−A)/(1+((x/C)D))), where y is the % maximal stimulatory effect, A is the minimum y, B is the maximum y, C is the EC50, x is the log 10 of the concentration of the competing compound and D is the slope of the curve (the Hill Coefficient). From these curves the EC50 (drug concentration at which 50% of the maximal receptor activation was achieved), the Hill coefficient as well as the maximal response in % of the maximal stimulatory effect obtained with saturating concentrations of L-AP4 were calculated (see FIG. 1).
A general note: Calcium assays in cells follow changes in intracellular calcium, usually with a dye or a luminescent sensor.

Chain of human mGlu4 receptor (Q14833 33-912): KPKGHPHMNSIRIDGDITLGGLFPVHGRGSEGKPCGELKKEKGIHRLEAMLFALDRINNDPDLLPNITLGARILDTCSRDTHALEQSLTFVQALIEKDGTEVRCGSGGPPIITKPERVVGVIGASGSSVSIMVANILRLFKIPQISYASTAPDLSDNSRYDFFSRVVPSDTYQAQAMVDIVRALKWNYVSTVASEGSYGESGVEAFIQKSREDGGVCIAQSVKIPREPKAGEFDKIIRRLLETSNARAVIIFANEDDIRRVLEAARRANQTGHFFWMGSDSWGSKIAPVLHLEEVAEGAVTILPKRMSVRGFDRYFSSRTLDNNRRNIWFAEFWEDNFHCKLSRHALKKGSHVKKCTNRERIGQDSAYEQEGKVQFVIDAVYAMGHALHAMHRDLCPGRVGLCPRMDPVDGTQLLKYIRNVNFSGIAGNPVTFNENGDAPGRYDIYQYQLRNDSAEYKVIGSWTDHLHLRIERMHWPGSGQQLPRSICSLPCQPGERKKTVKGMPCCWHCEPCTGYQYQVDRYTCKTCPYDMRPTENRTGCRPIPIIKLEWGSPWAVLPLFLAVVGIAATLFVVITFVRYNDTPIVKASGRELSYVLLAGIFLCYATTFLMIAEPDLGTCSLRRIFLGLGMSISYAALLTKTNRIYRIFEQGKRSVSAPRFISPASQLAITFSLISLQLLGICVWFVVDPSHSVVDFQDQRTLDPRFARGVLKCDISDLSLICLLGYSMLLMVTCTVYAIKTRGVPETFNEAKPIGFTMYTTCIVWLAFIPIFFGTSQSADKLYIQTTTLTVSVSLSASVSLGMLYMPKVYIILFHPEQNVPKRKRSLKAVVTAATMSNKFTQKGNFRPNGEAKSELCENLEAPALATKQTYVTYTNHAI

With `CC12CC(=O)N(c3c(F)cc(C#Cc4ccccc4)cc3F)C(=O)N1CCN(Cc1ccncc1)C2=O` (racemic) [Example 94, (9aRS)-7-[2,6-difluoro-4-(2-phenylethynyl)phenyl]-9a-methyl-2-(4-pyridylmethyl)-4,9-dihydro-3H-pyrazino[1,2-c]pyrimidine-1,6,8-trione], the Emax was found to be 84% and the EC50 (as a rule, the midpoint of the concentration-response curve) was 127 nM.
As for `Cc1ccc(N2CCN3C(=O)N(c4c(F)cc(C#Cc5ccccc5)cc4F)C(=O)CC3(C)C2=O)nn1` (racemic) [Example 48, (9aRS)-7-[2,6-difluoro-4-(2-phenylethynyl)phenyl]-9a-methyl-2-(6-methylpyridazin-3-yl)-4,9-dihydro-3H-pyrazino[1,2-c]pyrimidine-1,6,8-trione], the Emax was found to be 120% and the EC50 came to 198 nM.
The like results for `CC12CC(=O)N(c3c(F)cc(C#Cc4ccccc4)cc3F)C(=O)N1CCN(c1ccnc(Cl)c1)C2=O` (racemic) [Example 18, (9aRS)-2-(2-chloro-4-pyridyl)-7-[2,6-difluoro-4-(2-phenylethynyl)phenyl]-9a-methyl-4,9-dihydro-3H-pyrazino[1,2-c]pyrimidine-1,6,8-trione] were, in that order, 131% and 114 nM.
In the case of `CC12CC(=O)N(c3c(F)cc(C#Cc4ccccc4)cc3F)C(=O)N1CCN(Cc1ccccn1)C2=O` (racemic) [Example 92, (9aRS)-7-[2,6-difluoro-4-(2-phenylethynyl)phenyl]-9a-methyl-2-(2-pyridylmethyl)-4,9-dihydro-3H-pyrazino[1,2-c]pyrimidine-1,6,8-trione], the Emax was found to be 91% and the EC50 worked out at 198 nM.
With `CC12CC(=O)N(c3c(F)cc(C#Cc4ccccc4)cc3F)C(=O)N1CCN(c1nc(C#N)cs1)C2=O` (racemic) [Example 55, 2-[(9aRS)-7-[2,6-difluoro-4-(2-phenylethynyl)phenyl]-9a-methyl-1,6,8-trioxo-4,9-dihydro-3H-pyrazino[1,2-c]pyrimidin-2-yl]thiazole-4-carbonitrile], the Emax turned out to be 94% and the EC50 was 77 nM.
The like results for `CC12CC(=O)N(c3c(F)cc(C#Cc4ccccc4)cc3F)C(=O)N1CCN(Cc1cccc(Cl)c1)C2=O` (racemic) [Example 88, (9aRS)-2-[(3-chlorophenyl)methyl]-7-[2,6-difluoro-4-(2-phenylethynyl)phenyl]-9a-methyl-4,9-dihydro-3H-pyrazino[1,2-c]pyrimidine-1,6,8-trione] were, in that order, 134% and 73 nM.
As for `CCOC(=O)CCCN1CCN2C(=O)N(c3c(F)cc(C#Cc4ccccc4)cc3F)C(=O)C[C@@]2(C)C1=O` [Example 82, Ethyl 4-[(9aS)-7-[2,6-difluoro-4-(2-phenylethynyl)phenyl]-9a-methyl-1,6,8-trioxo-4,9-dihydro-3H-pyrazino[1,2-c]pyrimidin-2-yl]butanoate], the Emax was determined as 134% and the EC50 came to 201 nM.
As for `Cn1ncc(N2CCN3C(=O)N(c4c(F)cc(C#Cc5ccccc5)cc4F)C(=O)CC3(C)C2=O)cc1=O` (racemic) [Example 51, (9aRS)-7-[2,6-difluoro-4-(2-phenylethynyl)phenyl]-9a-methyl-2-(1-methyl-6-oxo-pyridazin-4-yl)-4,9-dihydro-3H-pyrazino[1,2-c]pyrimidine-1,6,8-trione], the Emax was found to be 120% and the EC50 is 191 nM.
In the case of `Cn1ccc(N2CCN3C(=O)N(c4c(F)cc(C#Cc5ccccc5)cc4F)C(=O)CC3(C)C2=O)n1` (racemic) [Example 62, (9aRS)-7-[2,6-difluoro-4-(2-phenylethynyl)phenyl]-9a-methyl-2-(1-methylpyrazol-3-yl)-4,9-dihydro-3H-pyrazino[1,2-c]pyrimidine-1,6,8-trione], the Emax was determined as 112% and the EC50 amounted to 149 nM.
In the case of `Cn1nccc1CCN1CCN2C(=O)N(c3c(F)cc(C#Cc4ccccc4)cc3F)C(=O)C[C@@]2(C)C1=O` [Example 100, (9aS)-7-[2,6-difluoro-4-(2-phenylethynyl)phenyl]-9a-methyl-2-[2-(2-methylpyrazol-3-yl)ethyl]-4,9-dihydro-3H-pyrazino[1,2-c]pyrimidine-1,6,8-trione], the Emax was 123% and the EC50 was 219 nM.
Turning to `CC12CC(=O)N(c3c(F)cc(C#Cc4ccccc4)cc3F)C(=O)N1CCN(c1ccc(Cl)nc1)C2=O` (racemic) [Example 20, (9aRS)-2-(6-chloro-3-pyridyl)-7-[2,6-difluoro-4-(2-phenylethynyl)phenyl]-9a-methyl-4,9-dihydro-3H-pyrazino[1,2-c]pyrimidine-1,6,8-trione], the Emax worked out at 101% and the EC50 came to 116 nM.
In the case of `COCC12CC(=O)N(c3c(F)cc(C#Cc4ccccc4)cc3F)C(=O)N1CCN(c1cccnc1)C2=O` (racemic) [Example 102, (9aRS)-7-[2,6-difluoro-4-(2-phenylethynyl)phenyl]-9a-(methoxymethyl)-2-(3-pyridyl)-4,9-dihydro-3H-pyrazino[1,2-c]pyrimidine-1,6,8-trione], the Emax came to 136% and the EC50 amounted to 129 nM.
For the compound `Cn1cnc(N2CCN3C(=O)N(c4c(F)cc(C#Cc5ccccc5)cc4F)C(=O)CC3(C)C2=O)c1` (racemic) [Example 58, (9aRS)-7-[2,6-difluoro-4-(2-phenylethynyl)phenyl]-9a-methyl-2-(1-methylimidazol-4-yl)-4,9-dihydro-3H-pyrazino[1,2-c]pyrimidine-1,6,8-trione], the Emax was found to be 91% and the EC50 came out at 214 nM.
The like results for `O=C1C2CC(=O)N(c3c(F)cc(C#Cc4ccccc4)cc3F)C(=O)N2CCN1c1ccncn1` (racemic) [Example 2, (9aRS)-7-[2,6-difluoro-4-(2-phenylethynyl)phenyl]-2-pyrimidin-4-yl-3,4,9,9a-tetrahydropyrazino[1,2-c]pyrimidine-1,6,8-trione] were, in that order, 88% and 85 nM.
The like results for `Cn1nc(N2CCN3C(=O)N(c4c(F)cc(C#Cc5ccccc5)cc4F)C(=O)C[C@@]3(C)C2=O)ccc1=O` [Example 49, (9aS)-7-[2,6-difluoro-4-(2-phenylethynyl)phenyl]-9a-methyl-2-(1-methyl-6-oxo-pyridazin-3-yl)-4,9-dihydro-3H-pyrazino[1,2-c]pyrimidine-1,6,8-trione] were, in that order, 109% and 197 nM.
As for `C[C@@]12CC(=O)N(c3c(F)cc(C#Cc4ccccc4)cc3F)C(=O)N1CCN(c1cnccn1)C2=O` [Example 33, (9aS)-7-[2,6-difluoro-4-(2-phenylethynyl)phenyl]-9a-methyl-2-pyrazin-2-yl-4,9-dihydro-3H-pyrazino[1,2-c]pyrimidine-1,6,8-trione], the Emax amounted to 107% and the EC50 is 46 nM.
For `CC12CC(=O)N(c3c(F)cc(C#Cc4ccccc4)cc3F)C(=O)N1CCN(c1cccnn1)C2=O` (racemic) [Example 46, (9aRS)-7-[2,6-difluoro-4-(2-phenylethynyl)phenyl]-9a-methyl-2-pyridazin-3-yl-4,9-dihydro-3H-pyrazino[1,2-c]pyrimidine-1,6,8-trione], the Emax worked out at 106% and the EC50 stood at 132 nM.
As for `Cn1ccc(N2CCN3C(=O)N(c4c(F)cc(C#Cc5ccccc5)cc4F)C(=O)C[C@@]3(C)C2=O)n1` [Example 63, (9aS)-7-[2,6-difluoro-4-(2-phenylethynyl)phenyl]-9a-methyl-2-(1-methylpyrazol-3-yl)-4,9-dihydro-3H-pyrazino[1,2-c]pyrimidine-1,6,8-trione], the Emax was found to be 136% and the EC50 is 165 nM.
Turning to `C[C@@]12CC(=O)N(c3c(F)cc(C#Cc4ccccc4)cc3F)C(=O)N1CCN(c1cccnn1)C2=O` [Example 47, (9aS)-7-[2,6-difluoro-4-(2-phenylethynyl)phenyl]-9a-methyl-2-pyridazin-3-yl-4,9-dihydro-3H-pyrazino[1,2-c]pyrimidine-1,6,8-trione], the Emax was 98% and the EC50 amounted to 55 nM.
`Cn1cc(N2CCN3C(=O)N(c4c(F)cc(C#Cc5ccccc5)cc4F)C(=O)C[C@@]3(C)C2=O)cn1` [Example 68, (9aS)-7-[2,6-difluoro-4-(2-phenylethynyl)phenyl]-9a-methyl-2-(1-methylpyrazol-4-yl)-4,9-dihydro-3H-pyrazino[1,2-c]pyrimidine-1,6,8-trione]: the Emax was 135% and the concentration for a half-maximal effect (EC50) stood at 90 nM.
